{"source": "paper PMC6941952", "about": "“A homogeneous bioluminescent immunoassay to probe cellular signaling pathway regulation” (Communications Biology, 2020)", "key": {"phospho-IκBα (Ser32) [1]": {"system": "phospho-IκBα (Ser32)", "experiment": "NanoBiT cell-based immunoassay, phosphorylated IκBα in human primary mammary epithelial cells", "settings": "for P-IkB Average: background subtracted; for P-IkB Raw data / P-IkB Subtract reagent background: listed as TNF", "method": "(§1) All cell lines used are from ATCC. […] Human Primary Mammary Epithelial Cells (#H-6035), Human Breast Tumor Epithelial Cells (#HC-6035), Complete Human Epithelial Cell Medium (#H6621), and Gelatin-Based Coating Solution (#H6950) were purchased from Cell Biologics. The cells were cultured according to the manufacturer’s procedure. All cells were grown at 37 °C in a 5% CO2 humidified incubator and passaged before reaching 80% cell confluency. Prior to each experiment, cells were counted by combining 30 µl of cell suspension with 30 µl of trypan blue. After gentle pipetting up and down to mix the cells and the dye, the cell number was determined using Bio-Rad TC 20 cell counter.\n(§2) Prior to NanoBiT Cell-Based Immunoassay, 50,000 cells were seeded in 160 µl of complete growth media per well of a 96-well plate and incubated overnight. The cells were checked under microscope and it was determined that 50,000 cells per well in 96-well plate is under 90% confluency for all cells tested. If necessary, the cell culture media were replaced with serum-free media after the cells were stably adherent on the plate and incubated overnight. To treat cells with activators or inhibitors, medium was changed to 30 µl of medium containing inhibitors. If activation of a specific pathway is needed, the cells were stimulated with 10 µl of medium containing activators. To lyse the cells, 10 µl of lysis buffer containing 0.1% digitonin diluted in 1X immunoassay buffer with protease and phosphatase inhibitors was added and the plates were mixed vigorously for 20 min. Then, 50 µl of an antibody mix containing two primary antibodies against the target protein and NanoBiT detecting antibodies (0.3 µl each per well), diluted in 1X immunoassay buffer was added to the lysates. The plates were incubated at 23 °C for 90 min, followed by the addition of 25 µl of Nano-Glo® reagent consisting of Nano-Glo® Luciferase Assay Substrate mixed with 1X immunoassay buffer. Luminescence was measured using a plate-reading luminometer.\n(§3) Single dose or dose response inhibitor treatments were performed prior to activation of the pathways as follows. For IκBα, the cells were treated in 30 µl medium with IKK16 or MG132 for 60 min before the addition of 10 µl of DMEM containing appropriate concentration of TNFα. To measure phosphorylation of AKT or STAT3, the corresponding NanoBiT immunoassays were developed with MCF-7 or A431 cells, respectively, according the same scheme used to develop the IκBα assay using the primary antibodies for AKT and STAT3 described in the reagents section. For the AKT assay, MCF-7 cells were incubated overnight in phenol-red free DMEM medium (Gibco #21063-029) without serum. Treatment with LY294002 was performed in 30 µl medium and cells were incubated for 60 min before the addition of 1 µM Insulin. To measure STAT3 phosphorylation, A431 cells were incubated overnight in DMEM medium without serum. […] After addition of the stimulators, the cells were incubated for additional times as follows. IκBα phosphorylation and degradation analyses required both time courses and single time points as described in figures. […] The NanoBiT immunoassay protocol was followed as described above.\n(§4) All 96-well assay plates were read using a GloMax® 96 Microplate Luminometer from Promega. The instrument was set to 0.5 s integration time. In order to obtain net change of signal, the reagent background values (signal from the well containing all reagent except primary antibodies) were subtracted from the sample values. To plot and analyze the data, Microsoft Excel and GraphPad Prism® Software were used. IC50 values were determined by using a nonlinear regression fit to a sigmoidal dose response (variable slope)."}, "phospho-IκBα (Ser32) [2]": {"system": "phospho-IκBα (Ser32)", "experiment": "NanoBiT cell-based immunoassay, phosphorylated IκBα in human breast tumor epithelial cells", "settings": "for P-IkB Average: background subtracted; for P-IkB Raw data / P-IkB Subtract reagent background: listed as TNF", "method": "as §1, §2, §3, §4"}}, "note": "Several values for one entry are separate records, joined by “and”; a condition that tells them apart may be missing. Equal entries are not always repeated.", "data": [{"substance": "TNFα", "values": [{"measurement": "P-IkB Average", "setting": "phospho-IκBα (Ser32) [1]; TNF 2 min", "result": 5853}, {"measurement": "P-IkB Raw data", "setting": "phospho-IκBα (Ser32) [1]; TNF 2 min", "result": "17220 and 16460 and 16920"}, {"measurement": "P-IkB Subtract reagent background", "setting": "phospho-IκBα (Ser32) [1]; TNF 2 min", "result": "6207 and 5447 and 5907"}, {"measurement": "P-IkB Average", "setting": "phospho-IκBα (Ser32) [1]; TNF 4 min", "result": 8003}, {"measurement": "P-IkB Raw data", "setting": "phospho-IκBα (Ser32) [1]; TNF 4 min", "result": "18510 and 19530 and 19010"}, {"measurement": "P-IkB Subtract reagent background", "setting": "phospho-IκBα (Ser32) [1]; TNF 4 min", "result": "7497 and 8517"}, {"measurement": "P-IkB Average", "setting": "phospho-IκBα (Ser32) [1]; TNF 6 min", "result": 13540}, {"measurement": "P-IkB Raw data", "setting": "phospho-IκBα (Ser32) [1]; TNF 6 min", "result": "23690 and 24890 and 25080"}, {"measurement": "P-IkB Subtract reagent background", "setting": "phospho-IκBα (Ser32) [1]; TNF 6 min", "result": "12677 and 13877"}, {"measurement": "P-IkB Average", "setting": "phospho-IκBα (Ser32) [1]; TNF 8 min", "result": 18690}, {"measurement": "P-IkB Raw data", "setting": "phospho-IκBα (Ser32) [1]; TNF 8 min", "result": "28000 and 30000 and 31110"}, {"measurement": "P-IkB Subtract reagent background", "setting": "phospho-IκBα (Ser32) [1]; TNF 8 min", "result": "16987 and 18987"}, {"measurement": "P-IkB Average", "setting": "phospho-IκBα (Ser32) [1]; TNF 10 min", "result": 22970}, {"measurement": "P-IkB Raw data", "setting": "phospho-IκBα (Ser32) [1]; TNF 10 min", "result": "33480 and 34070 and 34400"}, {"measurement": "P-IkB Subtract reagent background", "setting": "phospho-IκBα (Ser32) [1]; TNF 10 min", "result": "22467 and 23057"}, {"measurement": "P-IkB Average", "setting": "phospho-IκBα (Ser32) [1]; TNF 12 min", "result": 25163}, {"measurement": "P-IkB Raw data", "setting": "phospho-IκBα (Ser32) [1]; TNF 12 min", "result": "35750 and 35400 and 37380"}, {"measurement": "P-IkB Subtract reagent background", "setting": "phospho-IκBα (Ser32) [1]; TNF 12 min", "result": "24737 and 24387"}, {"measurement": "P-IkB Average", "setting": "phospho-IκBα (Ser32) [1]; TNF 15 min", "result": 25267}, {"measurement": "P-IkB Raw data", "setting": "phospho-IκBα (Ser32) [1]; TNF 15 min", "result": "35860 and 36040 and 36940"}, {"measurement": "P-IkB Subtract reagent background", "setting": "phospho-IκBα (Ser32) [1]; TNF 15 min", "result": "24847 and 25027 and 25927"}, {"measurement": "P-IkB Average", "setting": "phospho-IκBα (Ser32) [1]; TNF 30 min", "result": 18640}, {"measurement": "P-IkB Raw data", "setting": "phospho-IκBα (Ser32) [1]; TNF 30 min", "result": "29280 and 29480 and 30200"}, {"measurement": "P-IkB Subtract reagent background", "setting": "phospho-IκBα (Ser32) [1]; TNF 30 min", "result": "18267 and 18467 and 19187"}, {"measurement": "P-IkB Average", "setting": "phospho-IκBα (Ser32) [1]; TNF 45 min", "result": 16850}, {"measurement": "P-IkB Raw data", "setting": "phospho-IκBα (Ser32) [1]; TNF 45 min", "result": "28120 and 27980 and 27490"}, {"measurement": "P-IkB Subtract reagent background", "setting": "phospho-IκBα (Ser32) [1]; TNF 45 min", "result": "17107 and 16967 and 16477"}, {"measurement": "P-IkB Average", "setting": "phospho-IκBα (Ser32) [1]; TNF 60 min", "result": 19710}, {"measurement": "P-IkB Raw data", "setting": "phospho-IκBα (Ser32) [1]; TNF 60 min", "result": "31240 and 30980 and 29950"}, {"measurement": "P-IkB Subtract reagent background", "setting": "phospho-IκBα (Ser32) [1]; TNF 60 min", "result": "20227 and 19967 and 18937"}, {"measurement": "P-IkB Average", "setting": "phospho-IκBα (Ser32) [2]; TNF 2 min", "result": 10421}, {"measurement": "P-IkB Raw data", "setting": "phospho-IκBα (Ser32) [2]; TNF 2 min", "result": "19130 and 19610 and 19580"}, {"measurement": "P-IkB Subtract reagent background", "setting": "phospho-IκBα (Ser32) [2]; TNF 2 min", "result": "10591 and 10561 and 10111"}, {"measurement": "P-IkB Average", "setting": "phospho-IκBα (Ser32) [2]; TNF 4 min", "result": 13121}, {"measurement": "P-IkB Raw data", "setting": "phospho-IκBα (Ser32) [2]; TNF 4 min", "result": "21660 and 22370 and 22390"}, {"measurement": "P-IkB Subtract reagent background", "setting": "phospho-IκBα (Ser32) [2]; TNF 4 min", "result": "13351 and 13371 and 12641"}, {"measurement": "P-IkB Average", "setting": "phospho-IκBα (Ser32) [2]; TNF 6 min", "result": 21828}, {"measurement": "P-IkB Raw data", "setting": "phospho-IκBα (Ser32) [2]; TNF 6 min", "result": "29170 and 32480 and 30890"}, {"measurement": "P-IkB Subtract reagent background", "setting": "phospho-IκBα (Ser32) [2]; TNF 6 min", "result": "23461 and 21871 and 20151"}, {"measurement": "P-IkB Average", "setting": "phospho-IκBα (Ser32) [2]; TNF 8 min", "result": 28528}, {"measurement": "P-IkB Raw data", "setting": "phospho-IκBα (Ser32) [2]; TNF 8 min", "result": "35450 and 39050 and 38140"}, {"measurement": "P-IkB Subtract reagent background", "setting": "phospho-IκBα (Ser32) [2]; TNF 8 min", "result": "30031 and 29121 and 26431"}, {"measurement": "P-IkB Average", "setting": "phospho-IκBα (Ser32) [2]; TNF 10 min", "result": 34158}, {"measurement": "P-IkB Raw data", "setting": "phospho-IκBα (Ser32) [2]; TNF 10 min", "result": "41810 and 44090 and 43630"}, {"measurement": "P-IkB Subtract reagent background", "setting": "phospho-IκBα (Ser32) [2]; TNF 10 min", "result": "35071 and 34611 and 32791"}, {"measurement": "P-IkB Average", "setting": "phospho-IκBα (Ser32) [2]; TNF 12 min", "result": 36728}, {"measurement": "P-IkB Raw data", "setting": "phospho-IκBα (Ser32) [2]; TNF 12 min", "result": "43840 and 47190 and 46210"}, {"measurement": "P-IkB Subtract reagent background", "setting": "phospho-IκBα (Ser32) [2]; TNF 12 min", "result": "38171 and 37191 and 34821"}, {"measurement": "P-IkB Average", "setting": "phospho-IκBα (Ser32) [2]; TNF 15 min", "result": 37461}, {"measurement": "P-IkB Raw data", "setting": "phospho-IκBα (Ser32) [2]; TNF 15 min", "result": "43590 and 48210 and 47640"}, {"measurement": "P-IkB Subtract reagent background", "setting": "phospho-IκBα (Ser32) [2]; TNF 15 min", "result": "39191 and 38621 and 34571"}, {"measurement": "P-IkB Average", "setting": "phospho-IκBα (Ser32) [2]; TNF 30 min", "result": 32864}, {"measurement": "P-IkB Raw data", "setting": "phospho-IκBα (Ser32) [2]; TNF 30 min", "result": "39720 and 43050 and 42880"}, {"measurement": "P-IkB Subtract reagent background", "setting": "phospho-IκBα (Ser32) [2]; TNF 30 min", "result": "34031 and 33861 and 30701"}, {"measurement": "P-IkB Average", "setting": "phospho-IκBα (Ser32) [2]; TNF 45 min", "result": 30164}, {"measurement": "P-IkB Raw data", "setting": "phospho-IκBα (Ser32) [2]; TNF 45 min", "result": "36730 and 40420 and 40400"}, {"measurement": "P-IkB Subtract reagent background", "setting": "phospho-IκBα (Ser32) [2]; TNF 45 min", "result": "31401 and 31381 and 27711"}, {"measurement": "P-IkB Average", "setting": "phospho-IκBα (Ser32) [2]; TNF 60 min", "result": 35274}, {"measurement": "P-IkB Raw data", "setting": "phospho-IκBα (Ser32) [2]; TNF 60 min", "result": "41100 and 46170 and 45610"}, {"measurement": "P-IkB Subtract reagent background", "setting": "phospho-IκBα (Ser32) [2]; TNF 60 min", "result": "37151 and 36591 and 32081"}]}]}
